Data as given in patent publication US9586949B2, “Aza-heteroaryl compounds as PI3K-gamma inhibitors” (Incyte Corporation, priority 2015, dated 2017).
Counter-ions that a name gives are not always drawn.

Assays:
[1] = molecular target: PI3Kγ (p110γ) Recombinant Human Protein (Homo sapiens (Human), UniProt P48736); test: PI3K-γ Scintillation Proximity Assay; type: biochemical; settings: 20 μM PIP2, 2 μM ATP, 13 nM PI3Kγ, 120 min; read-out: PI3K-gamma SPA IC50
Procedure: [γ-^33P]ATP (10 mCi/mL) and Wheat Germ Agglutinin (WGA) YSi SPA Scintillation Beads was purchased from Perkin-Elmer (Waltham, Mass.). […] PI3Kγ (p110γ) Recombinant Human Protein was purchased from Life technology (Grand Island, N.Y.). ATP, MgCl2, DTT, EDTA, MOPS and CHAPS were purchased from Sigma-Aldrich (St. Louis, Mo.).
The kinase reaction was conducted in polystyrene 384-well Greiner Bio-one white plate from Thermo Fisher Scientific in a final volume of 25 μL. Inhibitors were first diluted serially in DMSO and added to the plate wells before the addition of other reaction components. The final concentration of DMSO in the assay was 2%. The PI3Kγ assay was carried out at room temperature in 20 mM MOPS, pH 6.7, 10 mM MgCl2, 5 mM DTT and CHAPS 0.03%. Reactions were initiated by the addition of ATP, the final reaction mixture consisted of 20 μM PIP2, 2 μM ATP, 0.5 μCi [γ-^33P] […] The final concentration of SPA beads is 1.0 mg/mL. After the plate sealing, plates were shaken overnight at room temperature and centrifuged at 1500 rpm for 10 min, the radioactivity of the product was determined by scintillation counting on Topcount (Perkin-Elmer). IC50 determination was performed by fitting the curve of percent of the solvent control activity versus the log of the inhibitor concentration using the GraphPad Prism 6.0 software.

[2] = molecular target: PI3Kδ (p110δ/p85α) Recombinant Human Protein (Homo sapiens (Human), UniProt O00329); test: PI3Kδ Scintillation Proximity Assay; type: biochemical; settings: 20 μM PIP2, 2 μM ATP, 3.4 nM PI3Kδ, 120 min; read-out: PI3K-delta SPA IC50
Sequence of PI3Kδ (p110δ/p85α) Recombinant Human Protein (O00329 whole entry): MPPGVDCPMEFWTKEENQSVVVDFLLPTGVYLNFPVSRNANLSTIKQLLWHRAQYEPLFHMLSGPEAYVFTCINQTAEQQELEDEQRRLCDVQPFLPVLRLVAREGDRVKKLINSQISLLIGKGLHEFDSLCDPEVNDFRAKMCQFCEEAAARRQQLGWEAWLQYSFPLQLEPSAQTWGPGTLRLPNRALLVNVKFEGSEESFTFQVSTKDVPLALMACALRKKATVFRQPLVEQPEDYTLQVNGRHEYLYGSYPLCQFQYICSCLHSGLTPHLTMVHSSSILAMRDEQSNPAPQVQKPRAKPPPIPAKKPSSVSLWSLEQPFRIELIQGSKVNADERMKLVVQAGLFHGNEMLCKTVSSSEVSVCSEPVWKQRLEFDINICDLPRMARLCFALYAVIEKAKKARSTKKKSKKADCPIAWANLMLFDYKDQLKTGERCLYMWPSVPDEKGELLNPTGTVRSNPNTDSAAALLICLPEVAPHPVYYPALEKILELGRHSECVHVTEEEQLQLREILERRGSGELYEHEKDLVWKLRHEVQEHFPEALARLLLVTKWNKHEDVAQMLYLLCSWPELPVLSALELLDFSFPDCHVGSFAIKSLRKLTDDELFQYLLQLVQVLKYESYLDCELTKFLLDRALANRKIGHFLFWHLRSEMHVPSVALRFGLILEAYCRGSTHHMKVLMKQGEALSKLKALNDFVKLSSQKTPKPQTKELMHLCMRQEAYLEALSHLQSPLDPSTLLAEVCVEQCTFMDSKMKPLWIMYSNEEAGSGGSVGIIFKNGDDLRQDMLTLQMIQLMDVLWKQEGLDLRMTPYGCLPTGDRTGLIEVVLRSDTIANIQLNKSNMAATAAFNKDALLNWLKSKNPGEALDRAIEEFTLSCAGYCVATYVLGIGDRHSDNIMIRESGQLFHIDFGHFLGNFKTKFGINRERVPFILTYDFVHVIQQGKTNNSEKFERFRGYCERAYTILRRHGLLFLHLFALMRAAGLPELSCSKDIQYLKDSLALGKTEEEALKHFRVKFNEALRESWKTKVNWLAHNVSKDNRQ
Sequence of PI3Kδ (p110δ/p85α) Recombinant Human Protein (P27986 whole entry partner): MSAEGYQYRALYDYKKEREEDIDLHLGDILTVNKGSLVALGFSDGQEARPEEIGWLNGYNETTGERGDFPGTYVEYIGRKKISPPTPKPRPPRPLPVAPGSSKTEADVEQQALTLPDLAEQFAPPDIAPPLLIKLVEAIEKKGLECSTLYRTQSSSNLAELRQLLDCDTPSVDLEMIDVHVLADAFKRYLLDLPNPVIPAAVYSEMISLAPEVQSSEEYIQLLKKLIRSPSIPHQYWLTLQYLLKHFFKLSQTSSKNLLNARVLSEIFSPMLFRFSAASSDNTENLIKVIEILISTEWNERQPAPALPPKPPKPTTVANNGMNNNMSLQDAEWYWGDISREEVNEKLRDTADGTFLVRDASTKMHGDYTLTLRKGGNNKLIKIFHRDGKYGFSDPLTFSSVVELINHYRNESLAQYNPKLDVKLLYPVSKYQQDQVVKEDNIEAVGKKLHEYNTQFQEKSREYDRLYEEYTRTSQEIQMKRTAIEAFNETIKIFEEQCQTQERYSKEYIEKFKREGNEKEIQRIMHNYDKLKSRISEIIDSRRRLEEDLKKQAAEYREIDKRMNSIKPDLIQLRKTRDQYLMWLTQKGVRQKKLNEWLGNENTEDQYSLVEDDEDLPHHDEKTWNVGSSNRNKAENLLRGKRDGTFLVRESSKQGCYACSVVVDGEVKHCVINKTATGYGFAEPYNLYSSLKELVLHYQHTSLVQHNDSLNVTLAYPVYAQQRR
Excerpt: [γ-^33P]ATP (10 mCi/mL) and Wheat Germ Agglutinin (WGA) YSi SPA Scintillation Beads was purchased from Perkin-Elmer (Waltham, Mass.). Lipid kinase substrate, D-myo-Phosphatidylinositol 4,5-bisphosphate (PtdIns(4,5)P2)D (+)-sn-1,2-di-O-octanoylglyceryl, 3-O-phospho linked (PIP2), CAS 204858-53-7, was purchased from Echelon Biosciences (Salt Lake City, Utah). PI3Kδ (p110δ/p85α) Recombinant Human Protein was purchased from Eurofins (St Charles, Mo.). ATP, MgCl2, DTT, EDTA, MOPS and CHAPS were purchased from Sigma-Aldrich (St. Louis, Mo.).
The kinase reaction was conducted in polystyrene 384-well Greiner Bio-one white plate from Thermo Fisher Scientific in a final volume of 25 μL. Inhibitors were first diluted serially in DMSO and added to the plate wells before the addition of other reaction components. The final concentration of DMSO in the assay was 2%. The PI3Kδ assay was carried out at room temperature in 20 mM MOPS, pH 6.7, 10 mM MgCl2, 5 mM DTT and CHAPS 0.03%. Reactions were initiated by the addition of ATP, the final reaction mixture consisted of 20 μM PIP2, 2 μM ATP, 0.5 μCi [γ-^33P] ATP, 3.4 nM PI3Kδ. Reactions were incubated for 120 min and terminated by the addition of 40 μL SPA beads suspended in quench buffer: 163 mM potassium phosphate pH 7.8, 20% glycerol, 25 mM EDTA. The final concentration of SPA beads is 1.0 mg/mL. After the plate sealing, plates were shaken overnight at room temperature and centrifuged at 1500 rpm for 10 min, the radioactivity of the product was determined by scintillation counting on Topcount (Perkin-Elmer). IC50 determination was performed by fitting the curve of percent of the solvent control activity versus the log of the inhibitor concentration using the GraphPad Prism 6.0 software.

Sequence of PI3Kγ (p110γ) Recombinant Human Protein (P48736 whole entry): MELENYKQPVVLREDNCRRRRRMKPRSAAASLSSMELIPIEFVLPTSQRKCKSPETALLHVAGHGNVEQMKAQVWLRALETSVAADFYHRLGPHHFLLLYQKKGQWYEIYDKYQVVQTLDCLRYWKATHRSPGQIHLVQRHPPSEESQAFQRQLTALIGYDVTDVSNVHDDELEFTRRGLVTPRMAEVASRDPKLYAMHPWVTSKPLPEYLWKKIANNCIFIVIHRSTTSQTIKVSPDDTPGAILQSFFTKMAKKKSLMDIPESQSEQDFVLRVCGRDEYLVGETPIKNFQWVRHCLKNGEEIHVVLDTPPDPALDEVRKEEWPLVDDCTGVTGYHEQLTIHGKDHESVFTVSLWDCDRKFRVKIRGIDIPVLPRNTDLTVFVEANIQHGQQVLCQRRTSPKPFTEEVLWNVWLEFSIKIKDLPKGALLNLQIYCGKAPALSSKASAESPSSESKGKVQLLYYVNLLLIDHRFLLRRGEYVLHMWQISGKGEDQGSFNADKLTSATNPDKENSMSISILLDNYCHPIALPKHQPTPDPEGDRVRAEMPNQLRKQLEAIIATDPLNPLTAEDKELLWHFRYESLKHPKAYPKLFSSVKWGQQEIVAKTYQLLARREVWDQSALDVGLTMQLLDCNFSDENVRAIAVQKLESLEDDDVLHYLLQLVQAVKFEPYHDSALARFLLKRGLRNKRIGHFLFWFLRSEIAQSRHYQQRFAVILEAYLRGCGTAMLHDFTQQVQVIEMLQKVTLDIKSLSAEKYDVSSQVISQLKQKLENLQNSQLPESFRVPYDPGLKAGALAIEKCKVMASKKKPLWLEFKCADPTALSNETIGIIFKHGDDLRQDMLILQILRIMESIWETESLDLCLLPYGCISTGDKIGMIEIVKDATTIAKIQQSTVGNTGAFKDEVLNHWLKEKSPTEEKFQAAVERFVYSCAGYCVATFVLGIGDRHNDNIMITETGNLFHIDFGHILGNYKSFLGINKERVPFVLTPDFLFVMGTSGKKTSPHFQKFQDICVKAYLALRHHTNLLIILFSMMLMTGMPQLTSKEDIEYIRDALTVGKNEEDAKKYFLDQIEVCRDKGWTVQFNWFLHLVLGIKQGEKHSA

IC50 [1]	IC50 [2]	Compound
< 250 nM	< 250 nM	O=S(=O)(Nc1cc(-c2ccc3nc(-c4nc5ccccc5[nH]4)oc3c2)cnc1F)c1ccc(F)cc1 [Example 30, N-(5-(2-(1H-Benzo[d]imidazol-2-yl)benzo[d]oxazol-6-yl)-2-fluoropyridin-3-yl)-4-fluorobenzenesulfonamide]
< 250 nM	< 250 nM	CN1CCN(S(=O)(=O)Nc2cc(-c3ccc4nc(-c5nc6ccccc6[nH]5)oc4c3)cnc2F)CC1 [Example 32, N-(5-(2-(1H-Benzo[d]imidazol-2-yl)benzo[d]oxazol-6-yl)-2-fluoropyridin-3-yl)-4-methylpiperazine-1-sulfonamide]
< 1000 nM	≥ 5000 nM	CC(=O)Nc1cncc(-c2ccc3nc(-c4nc5ccccc5[nH]4)oc3c2)c1 [Example 33, N-(5-(2-(1H-Benzo[d]imidazol-2-yl)benzo[d]oxazol-6-yl)pyridin-3-yl)acetamide]
< 250 nM	< 5000 nM	CN(C)c1cncc(-c2ccc3nc(-c4nc5ccccc5[nH]4)oc3c2)c1 [Example 34, 5-(2-(1H-Benzo[d]imidazol-2-yl)benzo[d]oxazol-6-yl)-N,N-dimethylpyridin-3-amine]
< 250 nM	≥ 5000 nM	N#Cc1cncc(-c2ccc3nc(-c4nc5ccccc5[nH]4)oc3c2)c1 [Example 35, 5-(2-(1H-Benzo[d]imidazol-2-yl)benzo[d]oxazol-6-yl)nicotinonitrile]
< 250 nM	< 5000 nM	CS(=O)(=O)c1cncc(-c2ccc3nc(-c4nc5ccccc5[nH]4)oc3c2)c1 [Example 36, 2-(1H-Benzo[d]imidazol-2-yl)-6-(5-(methylsulfonyl)pyridin-3-yl)benzo[d]oxazole]
< 250 nM	< 1000 nM	CN(C)S(=O)(=O)c1cncc(-c2ccc3nc(-c4nc5ccccc5[nH]4)oc3c2)c1 [Example 37, 5-[2-(1H-benzimidazol-2-yl)-1,3-benzoxazol-6-yl]-N,N-dimethylpyridine-3-sulfonamide]
< 250 nM	≥ 5000 nM	O=S(=O)(c1cncc(-c2ccc3nc(-c4nc5ccccc5[nH]4)oc3c2)c1)N1CCOCC1 [Example 38, 2-(1H-Benzo[d]imidazol-2-yl)-6-(5-(morpholinosulfonyl)pyridin-3-yl)benzo[d]oxazole]
< 250 nM	< 250 nM	O=S(=O)(Nc1cncc(-c2ccc3nc(-c4ncc[nH]4)oc3c2)c1)c1ccc(F)cc1 [Example 39, N-(5-(2-(1H-Imidazol-2-yl)benzo[d]oxazol-6-yl)pyridin-3-yl)-4-fluorobenzenesulfonamide]
< 250 nM	< 1000 nM	CCS(=O)(=O)Nc1cncc(-c2ccc3nc(-c4ncc[nH]4)oc3c2)c1 [Example 40, N-(5-(2-(1H-Imidazol-2-yl)benzo[d]oxazol-6-yl)pyridin-3-yl)ethanesulf-onamide]
< 250 nM	< 1000 nM	CN(C)S(=O)(=O)Nc1cncc(-c2ccc3nc(-c4ncc[nH]4)oc3c2)c1 [Example 41, N′-{5-[2-(1H-Imidazol-2-yl)-1,3-benzoxazol-6-yl]pyridin-3-yl}-N,N-dimethyl-sulfamide]
< 1000 nM	< 5000 nM	COc1cncc(-c2ccc3nc(-c4cnc(C5CC5)[nH]4)oc3c2)c1 [Example 42, 2-(2-Cyclopropyl-1H-imidazol-5-yl)-6-(5-methoxypyridin-3-yl)benzo[d]oxazole]
< 5000 nM	≥ 5000 nM	COc1cncc(-c2ccc3nc(-c4cnc(C5CCOC5)[nH]4)oc3c2)c1 (centres unmarked) [Example 43, 6-(5-Methoxy-pyridin-3-yl)-2-(2-(tetrahydro-furan-3-yl)-1H-imidazol-5-yl)benzo[d] oxazole]
< 250 nM	≥ 5000 nM	COc1cncc(-c2ccc3nc(-c4cnc(-c5ccccc5)[nH]4)oc3c2)c1 [Example 44, 6-(5-Methoxy-pyridin-3-yl)-2-(2-phenyl-1H-imidazol-5-yl)benzo[d] oxazole]
> 5000 nM	≥ 5000 nM	CCc1ncc(-c2nc3ccc(-c4cncc(OC)c4)cc3o2)[nH]1 [Example 45, 2-(2-Ethyl-1H-imidazol-5-yl)-6-(5-methoxy-pyridin-3-yl)benzo[d] oxazole]
> 5000 nM	≥ 5000 nM	COc1cncc(-c2ccc3nc(-c4cc(C)n[nH]4)oc3c2)c1 [Example 46, 6-(5-Methoxypyridin-3-yl)-2-(3-methyl-1H-pyrazol-5-yl)benzo[d]oxazole]
< 5000 nM	≥ 5000 nM	COc1cncc(-c2ccc3nc(-c4cc(-c5ccccc5)n[nH]4)oc3c2)c1 [Example 47, 6-(5-Methoxypyridin-3-yl)-2-(3-phenyl-1H-pyrazol-5-yl)benzo[d]oxazole]
< 250 nM	< 5000 nM	c1ccc(Cn2cc(-c3ccc4nc(-c5nc6ccccc6[nH]5)oc4c3)cn2)cc1 [Example 48, 2-(1H-Benzimidazol-2-yl)-6-(1-benzyl-1H-pyrazol-4-yl)-1,3-benzoxazole]
< 250 nM	< 5000 nM	c1ccc2[nH]c(-c3nc4ccc(-c5ccc6[nH]ncc6c5)cc4o3)nc2c1 [Example 49, 2-(1H-Benzimidazol-2-yl)-6-(1H-indazol-5-yl)-1,3-benzoxazole]
< 250 nM	< 250 nM	Cc1n[nH]c2ccc(-c3ccc4nc(-c5nc6ccccc6[nH]5)oc4c3)cc12 [Example 50, 2-(1H-Benzimidazol-2-yl)-6-(3-methyl-1H-indazol-5-yl)-1,3-benzoxazole]
< 250 nM	≥ 5000 nM	Fc1ccc(-c2ccc3nc(-c4nc5ccccc5[nH]4)oc3c2)cc1F [Example 51, 2-(1H-Benzimidazol-2-yl)-6-(3,4-difluorophenyl)-1,3-benzoxazole trifluoroacetate]
< 250 nM	< 250 nM	CCS(=O)(=O)n1ncc2ccc(-c3ccc4nc(-c5nc6ccccc6[nH]5)oc4c3)cc21 [Example 52, 6-[1-(Ethylsulfonyl)-1H-indazol-6-yl]-2-(1H-benzimidazol-2-yl)-1,3-benzoxazole]
< 250 nM	≥ 5000 nM	CCn1cc2ccc(-c3ccc4nc(-c5nc6ccccc6[nH]5)oc4c3)cc2n1 [Example 53, 2-(1H-benzimidazol-2-yl)-6-(2-ethyl-2H-indazol-6-yl)-1,3-benzoxazole bis(trifluoroacetate)]
< 250 nM	≥ 5000 nM	CCn1ncc2ccc(-c3ccc4nc(-c5nc6ccccc6[nH]5)oc4c3)cc21 [Example 54, 2-(1H-benzimidazol-2-yl)-6-(1-ethyl-1H-indazol-6-yl)-1,3-benzoxazole bis(trifluoroacetate)]
< 250 nM	≥ 5000 nM	Nc1ncc(-c2ccc3nc(-c4nc5ccccc5[nH]4)oc3c2)cc1C(F)(F)F [Example 56, 5-[2-(1H-Benzimidazol-2-yl)-1,3-benzoxazol-6-yl]-3-(trifluoromethyl)pyridin-2-amine bis(trifluoroacetate)]

Compound	IC50 [1]	IC50 [2]
CN1CCN(S(=O)(=O)Nc2cncc(-c3ccc4nc(-c5nc6ccccc6[nH]5)oc4c3)c2)CC1 [Example 31, N-(5-(2-(1H-Benzo[d]imidazol-2-yl)benzo[d]oxazol-6-yl)pyridin-3-yl)-4-methylpiperazine-1-sulfonamide]	< 250 nM	< 250 nM
c1ccc(CN2CCN(c3ccc4nc(-c5nc6ccccc6[nH]5)oc4c3)CC2)cc1 [Example 55, 2-(1H-Benzimidazol-2-yl)-6-(4-benzylpiperazin-1-yl)-1,3-benzoxazole tris(trifluoroacetate)]	< 5000 nM	≥ 5000 nM
CCn1ncc2ncc(-c3ccc4nc(-c5nc6ccccc6[nH]5)oc4c3)cc21 [Example 57, 6-[2-(1H-Benzimidazol-2-yl)-1,3-benzoxazol-6-yl]-1-ethyl-1H-pyrazolo[4,3-b]pyridine tris(trifluoroacetate)]	< 250 nM	< 1000 nM
